Patent US20120121591A1 (priority 2009, published 2012)
Read-outs that look alike come from different tables or passages of the source.

How the values were obtained:
[1] = tested on: IL-2 secretion from T cells in human whole blood; type: cell-based
[2] = tested on: IFN-g secretion from T cells in human whole blood; type: cell-based
[3] = read-out: WB (IL-2) IC50 (nM, Avg)
[4] = read-out: WB (IFNg) IC50 (nM, Avg)

| SMILES | IC50 ([1]; read-out: WB (IL-2) IC50) [nM] | IC50 [1, 3] [nM] | IC50 ([2]; read-out: WB (IFNg) IC50) [nM] | IC50 [2, 4] [nM] |
| --- | --- | --- | --- | --- |
| CC[C@H](C)[C@@H]1NC(=O)[C@@H](NC(=O)[C@H](CO)NC(=O)[C@@H](N)CCCNC(=N)N)CSSC[C@@H](C(=O)O)NC(=O)[C@H]([C@@H](C)O)NC(=O)CNC(=O)[C@@H]2CSSC[C@@H]3NC(=O)[C@H](CCC(N)=O)NC(=O)[C@H](Cc4ccccc4)NC(=O)[C@H](C)NC(=O)[C@H]([C@@H](C)O)NC(=O)[C@H](CSSC[C@H](NC(=O)[C@H](Cc4ccccc4)NC(=O)[C@H](CO)NC(=O)[C@H](CC(C)C)NC(=O)[C@H](CCCNC(=N)N)NC(=O)[C@H](Cc4ccc(O)cc4)NC(=O)[C@H](CCCCN)NC(=O)[C@H](CCSC)NC(=O)[C@H](CO)NC(=O)[C@H](Cc4c[nH]cn4)NC(=O)[C@H](CCCCN)NC3=O)C(=O)N[C@@H](CCCNC(=N)N)C(=O)N[C@@H](CCCCN)C(=O)N[C@@H]([C@@H](C)O)C(=O)N2)NC(=O)[C@H](CCCNC(=N)N)NC(=O)[C@H](CO)NC(=O)[C@H](CCCCN)NC(=O)[C@@H]2CCCN2C(=O)[C@H]([C@@H](C)CC)NC(=O)[C@H]([C@@H](C)O)NC(=O)[C@H](CC(=O)O)NC1=O [ShK(1-35), reference compound] | 0.067 | 0.043 | 0.078 | 0.052 |
| CC[C@H](C)[C@@H]1NC(=O)[C@@H](NC(=O)[C@H](CO)NC(=O)[C@@H](N)CCCNC(=N)N)CSSC[C@@H](C(=O)O)NC(=O)[C@H]([C@@H](C)O)NC(=O)CNC(=O)[C@@H]2CSSC[C@@H]3NC(=O)[C@H](CCC(N)=O)NC(=O)[C@H](Cc4ccccc4)NC(=O)[C@H](C)NC(=O)[C@H](Cc4cccc5ccccc45)NC(=O)[C@H](CSSC[C@H](NC(=O)[C@H](Cc4ccccc4)NC(=O)[C@H](CO)NC(=O)[C@H](CC(C)C)NC(=O)[C@H](CCCNC(=N)N)NC(=O)[C@H](Cc4ccc(O)cc4)NC(=O)[C@H](CCCCN)NC(=O)[C@H](CCSC)NC(=O)[C@H](CO)NC(=O)[C@H](Cc4c[nH]cn4)NC(=O)[C@H](CCCCN)NC3=O)C(=O)N[C@@H](CCCNC(=N)N)C(=O)N[C@@H](CCCCN)C(=O)N[C@@H]([C@@H](C)O)C(=O)N2)NC(=O)[C@H](CCCNC(=N)N)NC(=O)[C@H](CO)NC(=O)[C@H](CCCCN)NC(=O)[C@@H]2CCCN2C(=O)[C@H]([C@@H](C)CC)NC(=O)[C@H]([C@@H](C)O)NC(=O)[C@H](CC(=O)O)NC1=O [[1-Nal13]ShK] |  | 3.56 |  | 4.86 |
| CC[C@H](C)[C@@H]1NC(=O)[C@@H](NC(=O)[C@H](CO)NC(=O)[C@@H](N)CCCNC(=N)N)CSSC[C@@H](C(=O)O)NC(=O)[C@H]([C@@H](C)O)NC(=O)CNC(=O)[C@@H]2CSSC[C@@H]3NC(=O)[C@H](CCC(N)=O)NC(=O)[C@H](Cc4ccccc4)NC(=O)[C@H](C)NC(=O)[C@H]([C@@H](C)O)NC(=O)[C@H](CSSC[C@H](NC(=O)[C@H](Cc4ccccc4)NC(=O)[C@H](CO)NC(=O)[C@H](CC(C)C)NC(=O)[C@H](CCCNC(=N)N)NC(=O)[C@H](Cc4ccc(O)cc4)NC(=O)[C@H](CCCCN)NC(=O)[C@H](CCSC)NC(=O)[C@H](CO)NC(=O)[C@H](Cc4c[nH]cn4)NC(=O)[C@H](CCCCN)NC3=O)C(=O)N[C@@H](CCCNC(=N)N)C(=O)N[C@@H](Cc3cccc4ccccc34)C(=O)N[C@@H]([C@@H](C)O)C(=O)N2)NC(=O)[C@H](CCCNC(=N)N)NC(=O)[C@H](CO)NC(=O)[C@H](CCCCN)NC(=O)[C@@H]2CCCN2C(=O)[C@H]([C@@H](C)CC)NC(=O)[C@H]([C@@H](C)O)NC(=O)[C@H](CC(=O)O)NC1=O [[1-Nal30]ShK] |  | 0.082 |  | 0.148 |
| CC[C@H](C)[C@@H]1NC(=O)[C@@H](NC(=O)[C@H](CO)NC(=O)[C@@H](N)CCCNC(=N)N)CSSC[C@@H](C(=O)O)NC(=O)[C@H]([C@@H](C)O)NC(=O)CNC(=O)[C@@H]2CSSC[C@@H]3NC(=O)[C@H](CCC(N)=O)NC(=O)[C@H](Cc4ccccc4)NC(=O)[C@H](C)NC(=O)[C@H]([C@@H](C)O)NC(=O)[C@H](CSSC[C@H](NC(=O)[C@H](Cc4ccccc4)NC(=O)[C@H](CO)NC(=O)[C@H](CC(C)C)NC(=O)[C@H](CCCNC(=N)N)NC(=O)[C@H](Cc4ccc(O)cc4)NC(=O)[C@H](CCCCN)NC(=O)[C@H](CCSC)NC(=O)[C@H](CO)NC(=O)[C@H](Cc4c[nH]cn4)NC(=O)[C@H](CCCCN)NC3=O)C(=O)N[C@@H](CCCNC(=N)N)C(=O)N[C@@H](CCCCN)C(=O)N[C@@H]([C@@H](C)O)C(=O)N2)NC(=O)[C@H](C)NC(=O)[C@H](CO)NC(=O)[C@H](CCCCN)NC(=O)[C@@H]2CCCN2C(=O)[C@H]([C@@H](C)CC)NC(=O)[C@H]([C@@H](C)O)NC(=O)[C@H](CC(=O)O)NC1=O [[Ala11]ShK] |  | 1.24 |  | 1.9 |
| CC[C@H](C)[C@@H]1NC(=O)[C@@H](NC(=O)[C@H](CO)NC(=O)[C@@H](N)CCCNC(=N)N)CSSC[C@@H](C(=O)O)NC(=O)[C@H]([C@@H](C)O)NC(=O)CNC(=O)[C@@H]2CSSC[C@@H]3NC(=O)[C@H](CCC(N)=O)NC(=O)[C@H](Cc4ccccc4)NC(=O)[C@H](C)NC(=O)[C@H](C)NC(=O)[C@H](CSSC[C@H](NC(=O)[C@H](Cc4ccccc4)NC(=O)[C@H](CO)NC(=O)[C@H](CC(C)C)NC(=O)[C@H](CCCNC(=N)N)NC(=O)[C@H](Cc4ccc(O)cc4)NC(=O)[C@H](CCCCN)NC(=O)[C@H](CCSC)NC(=O)[C@H](CO)NC(=O)[C@H](Cc4c[nH]cn4)NC(=O)[C@H](CCCCN)NC3=O)C(=O)N[C@@H](CCCNC(=N)N)C(=O)N[C@@H](CCCCN)C(=O)N[C@@H]([C@@H](C)O)C(=O)N2)NC(=O)[C@H](CCCNC(=N)N)NC(=O)[C@H](CO)NC(=O)[C@H](CCCCN)NC(=O)[C@@H]2CCCN2C(=O)[C@H]([C@@H](C)CC)NC(=O)[C@H]([C@@H](C)O)NC(=O)[C@H](CC(=O)O)NC1=O [[Ala13]ShK] |  | 0.582 |  | 0.954 |
| CC[C@H](C)[C@@H]1NC(=O)[C@@H](NC(=O)[C@H](CO)NC(=O)[C@@H](N)CCCNC(=N)N)CSSC[C@@H](C(=O)O)NC(=O)[C@H]([C@@H](C)O)NC(=O)CNC(=O)[C@@H]2CSSC[C@@H]3NC(=O)[C@H](C)NC(=O)[C@H](Cc4ccccc4)NC(=O)[C@H](C)NC(=O)[C@H]([C@@H](C)O)NC(=O)[C@H](CSSC[C@H](NC(=O)[C@H](Cc4ccccc4)NC(=O)[C@H](CO)NC(=O)[C@H](CC(C)C)NC(=O)[C@H](CCCNC(=N)N)NC(=O)[C@H](Cc4ccc(O)cc4)NC(=O)[C@H](CCCCN)NC(=O)[C@H](CCSC)NC(=O)[C@H](CO)NC(=O)[C@H](Cc4c[nH]cn4)NC(=O)[C@H](CCCCN)NC3=O)C(=O)N[C@@H](CCCNC(=N)N)C(=O)N[C@@H](CCCCN)C(=O)N[C@@H]([C@@H](C)O)C(=O)N2)NC(=O)[C@H](CCCNC(=N)N)NC(=O)[C@H](CO)NC(=O)[C@H](CCCCN)NC(=O)[C@@H]2CCCN2C(=O)[C@H]([C@@H](C)CC)NC(=O)[C@H]([C@@H](C)O)NC(=O)[C@H](CC(=O)O)NC1=O [[Ala16]ShK] |  | 0.058 |  | 0.078 |
| CC[C@H](C)[C@@H]1NC(=O)[C@@H](NC(=O)[C@H](CO)NC(=O)[C@@H](N)CCCNC(=N)N)CSSC[C@@H](C(=O)O)NC(=O)[C@H]([C@@H](C)O)NC(=O)CNC(=O)[C@@H]2CSSC[C@@H]3NC(=O)[C@H](CCC(N)=O)NC(=O)[C@H](Cc4ccccc4)NC(=O)[C@H](C)NC(=O)[C@H]([C@@H](C)O)NC(=O)[C@H](CSSC[C@H](NC(=O)[C@H](Cc4ccccc4)NC(=O)[C@H](CO)NC(=O)[C@H](CC(C)C)NC(=O)[C@H](CCCNC(=N)N)NC(=O)[C@H](Cc4ccc(O)cc4)NC(=O)[C@H](CCCCN)NC(=O)[C@H](CCSC)NC(=O)[C@H](C)NC(=O)[C@H](Cc4c[nH]cn4)NC(=O)[C@H](CCCCN)NC3=O)C(=O)N[C@@H](CCCNC(=N)N)C(=O)N[C@@H](CCCCN)C(=O)N[C@@H]([C@@H](C)O)C(=O)N2)NC(=O)[C@H](CCCNC(=N)N)NC(=O)[C@H](CO)NC(=O)[C@H](CCCCN)NC(=O)[C@@H]2CCCN2C(=O)[C@H]([C@@H](C)CC)NC(=O)[C@H]([C@@H](C)O)NC(=O)[C@H](CC(=O)O)NC1=O [[Ala20]ShK] |  | 0.3 |  | 0.825 |
| CC[C@H](C)[C@@H]1NC(=O)[C@H]([C@@H](C)O)NC(=O)[C@H](CC(=O)O)NC(=O)[C@H](CCCNC(=N)N)NC(=O)[C@@H](NC(=O)[C@H](CO)NC(=O)[C@@H](N)CCCNC(=N)N)CSSC[C@@H](C(=O)O)NC(=O)[C@H]([C@@H](C)O)NC(=O)CNC(=O)[C@@H]2CSSC[C@@H]3NC(=O)[C@H](CCC(N)=O)NC(=O)[C@H](Cc4ccccc4)NC(=O)[C@H](C)NC(=O)[C@H]([C@@H](C)O)NC(=O)[C@H](CSSC[C@H](NC(=O)[C@H](Cc4ccccc4)NC(=O)[C@H](CO)NC(=O)[C@H](CC(C)C)NC(=O)[C@H](CCCNC(=N)N)NC(=O)[C@H](Cc4ccc(O)cc4)NC(=O)[C@H](CCCCN)NC(=O)[C@H](CCSC)NC(=O)[C@H](CO)NC(=O)[C@H](Cc4c[nH]cn4)NC(=O)[C@H](CCCCN)NC3=O)C(=O)N[C@@H](CCCNC(=N)N)C(=O)N[C@@H](CCCCN)C(=O)N[C@@H]([C@@H](C)O)C(=O)N2)NC(=O)[C@H](CCCNC(=N)N)NC(=O)[C@H](CO)NC(=O)[C@H](CCCCN)NC(=O)[C@@H]2CCCN2C1=O [[Arg4]ShK] |  | 0.051 |  | 0.081 |
| CC[C@H](C)[C@@H]1NC(=O)[C@@H](NC(=O)[C@H](CO)NC(=O)[C@@H](N)CCCNC(=N)N)CSSC[C@@H](C(=O)O)NC(=O)[C@H]([C@@H](C)O)NC(=O)CNC(=O)[C@@H]2CSSC[C@@H]3NC(=O)[C@H](CCC(N)=O)NC(=O)[C@H](Cc4ccccc4)NC(=O)[C@H](C)NC(=O)[C@H]([C@@H](C)O)NC(=O)[C@H](CSSC[C@H](NC(=O)[C@H](Cc4ccccc4)NC(=O)[C@H](CO)NC(=O)[C@H](CC(C)C)NC(=O)[C@H](CCCNC(=N)N)NC(=O)[C@H](Cc4ccc(O)cc4)NC(=O)[C@H](CCCCN)NC(=O)[C@H](CCSC)NC(=O)[C@H](CO)NC(=O)[C@H](Cc4c[nH]cn4)NC(=O)[C@H](CCCNC(=N)N)NC3=O)C(=O)N[C@@H](CCCNC(=N)N)C(=O)N[C@@H](CCCCN)C(=O)N[C@@H]([C@@H](C)O)C(=O)N2)NC(=O)[C@H](CCCNC(=N)N)NC(=O)[C@H](CO)NC(=O)[C@H](CCCCN)NC(=O)[C@@H]2CCCN2C(=O)[C@H]([C@@H](C)CC)NC(=O)[C@H]([C@@H](C)O)NC(=O)[C@H](CC(=O)O)NC1=O [[Arg18]ShK] |  | 0.012 |  | 0.023 |
